Values of other authors, collected in patent publication US8008021B2, “N-terminal truncation of cardiac troponin subunits and their roles in cardiovascular disease” (Evanston Northwestern Healthcare, priority 2006, dated 2011).

Experiments:
μ-calpain = molecular target: T1, μ-calpain (Homo sapiens, UniProt P07384); conditions: reference 43, cited from earlier work; for Ki: read-out: apparent inhibition constant Ki against μ-calpain
T1 sequence (P07384 1-714): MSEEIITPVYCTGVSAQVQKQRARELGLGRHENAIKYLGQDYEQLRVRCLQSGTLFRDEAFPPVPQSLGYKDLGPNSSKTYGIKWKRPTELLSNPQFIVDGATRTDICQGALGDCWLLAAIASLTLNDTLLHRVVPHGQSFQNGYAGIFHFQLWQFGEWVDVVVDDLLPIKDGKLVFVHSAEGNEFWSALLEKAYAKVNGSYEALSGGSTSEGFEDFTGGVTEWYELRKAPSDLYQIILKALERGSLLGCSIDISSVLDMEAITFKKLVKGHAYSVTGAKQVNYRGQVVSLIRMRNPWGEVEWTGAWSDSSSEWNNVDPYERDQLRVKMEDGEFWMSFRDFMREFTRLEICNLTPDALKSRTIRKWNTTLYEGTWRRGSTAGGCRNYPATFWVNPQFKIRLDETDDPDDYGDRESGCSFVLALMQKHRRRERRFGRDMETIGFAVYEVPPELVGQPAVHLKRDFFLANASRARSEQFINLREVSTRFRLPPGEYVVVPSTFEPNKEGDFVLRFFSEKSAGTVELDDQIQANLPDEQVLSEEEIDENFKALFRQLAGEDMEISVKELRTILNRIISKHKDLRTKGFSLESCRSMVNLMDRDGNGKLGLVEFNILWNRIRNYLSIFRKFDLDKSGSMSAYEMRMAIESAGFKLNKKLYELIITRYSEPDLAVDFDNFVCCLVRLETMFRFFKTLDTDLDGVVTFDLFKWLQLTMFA
T1 sequence (P04632 1-268 partner): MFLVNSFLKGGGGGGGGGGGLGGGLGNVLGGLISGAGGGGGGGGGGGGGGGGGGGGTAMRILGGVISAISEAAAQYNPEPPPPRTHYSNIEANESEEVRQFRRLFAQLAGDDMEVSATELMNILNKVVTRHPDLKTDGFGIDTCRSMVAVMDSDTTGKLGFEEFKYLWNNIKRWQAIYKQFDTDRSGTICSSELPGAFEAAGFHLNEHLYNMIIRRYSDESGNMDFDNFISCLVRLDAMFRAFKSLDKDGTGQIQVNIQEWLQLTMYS

m-calpain = molecular target: T2, m-calpain (Homo sapiens, UniProt P17655); conditions: reference 43; read-out: apparent inhibition constant Ki against m-calpain; cited from earlier work
T2 sequence (P17655 1-700): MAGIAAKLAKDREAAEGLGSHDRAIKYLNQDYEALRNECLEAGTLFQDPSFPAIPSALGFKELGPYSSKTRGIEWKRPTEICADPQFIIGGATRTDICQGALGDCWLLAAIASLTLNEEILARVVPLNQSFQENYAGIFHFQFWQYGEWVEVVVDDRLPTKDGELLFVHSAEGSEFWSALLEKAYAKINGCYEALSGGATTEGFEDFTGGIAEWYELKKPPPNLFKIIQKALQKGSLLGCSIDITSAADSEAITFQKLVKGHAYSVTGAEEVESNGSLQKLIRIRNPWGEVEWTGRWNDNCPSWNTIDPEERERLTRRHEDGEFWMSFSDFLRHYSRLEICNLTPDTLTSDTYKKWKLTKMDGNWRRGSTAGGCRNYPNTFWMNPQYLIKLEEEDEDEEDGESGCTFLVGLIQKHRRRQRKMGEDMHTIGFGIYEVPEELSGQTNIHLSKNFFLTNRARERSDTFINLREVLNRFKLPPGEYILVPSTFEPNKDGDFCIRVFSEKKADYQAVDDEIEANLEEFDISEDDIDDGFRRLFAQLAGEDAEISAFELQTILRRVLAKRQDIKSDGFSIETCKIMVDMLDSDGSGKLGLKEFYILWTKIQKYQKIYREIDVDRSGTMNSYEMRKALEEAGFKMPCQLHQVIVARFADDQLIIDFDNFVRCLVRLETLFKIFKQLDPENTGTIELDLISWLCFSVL
T2 sequence (P04632 1-268 partner): T1 sequence (P04632 1-268 partner)

SMILES: O=C(O)/C(S)=C/c1c[nH]c2ccc(F)cc12 [PD151746]
- selectivity for μ-calpain over m-calpain (μ-calpain): 20 fold
- Ki (μ-calpain): 0.26 ± 0.03 µM
- Ki (m-calpain): 5.33 ± 0.77 µM

SMILES: O=C(O)/C(S)=C/c1ccc(I)cc1 [PD150606]
- Ki (μ-calpain): 0.21 ± 0.01 µM
- Ki (m-calpain): 0.37 ± 0.03 µM
